In assay [1] the test system is PC-3 prostate cancer cells. Briefly: EDR anti-proliferation assay (3H-thymidine incorporation, soft agar) against PC-3 prostate cancer cells. The note with it: Homo sapiens; PC-3 cells in soft agar, five days incubation, 3H-TdR incorporation. It is filed as cell-based.
Source text: The PC-3 cell line was maintained in RPMI supplemented with 10% fetal calf serum and antibiotics. […] Cells were suspended in 0.12% soft agar in complete medium and plated (2,000 cells per well, as determined by preliminary experiments) in different drug concentrations onto a 0.4% agarose underlayer in 24-well plates. Plating cells on agarose underlayers supports the proliferation only of the transformed cells, ensuring that the growth signal stems from the malignant component of the tumor.
All compounds were dissolved in DMSO to 200× stock solutions. Stock solutions were diluted to 20× working solutions using the tissue culture medium, serially diluted and added to the 24-well plates. […] No significant changes in pH of the culture medium were observed under the above conditions. Diluent control wells contained PC3 cells treated with DMSO, at the dilutions used for appropriate drug treatment. All experimental points were represented by two separate wells (duplicates). Positive controls were determined using at least two wells treated with an extremely high dose of cisplatin, an anti-cancer agent. Four wells containing tumor cells that were not treated with drugs served as negative controls in each experiment.
Cells were incubated with drugs under standard culture conditions for five days. Cultures were pulsed with tritiated thymidine (^3H-TdR, New Life Science Products, Boston, Mass.) at 5 μCi per well for the last 48 hours of the culture period. Cell culture plates were then heated to 90° C. to liquefy the agarose, and cells were harvested onto glass fiber filters, which were then placed into counting vials containing liquid scintillation fluid. The radioactivity trapped on the filters was counted with a Beckman scintillation counter. The fraction of surviving cells was determined by comparing ^3H-TdR incorporation in treated (experimental points) and untreated (negative control) wells. […] IC50 values were determined using the approximated sigmoidal curves and expressed as μM.
Assay [2] addresses histone deacetylase isolated from rat liver. Briefly: Histone deacetylase inhibition assay with fluorescent substrate MAL, HPLC determination. It is filed as biochemical. The note with it: 37° C. 90 minutes, IC50 from five dilutions, read-out: HDAC.
Procedure: The inhibition of histone deacetylase was determined according to methods generally described by Hoffmann et al., Nucleic Acids Res. 27:2057-8 (1999). The histone deacetylase was isolated from rat liver as previously described by M. Tung. The compounds tested were initially dissolved in either ethanol or in DMSO to provide working stock solutions.
The assay was performed in a final volume of 120 μL total, consisting of 100 μL of 15 μM tris-HCl buffer (pH 7.9) also containing 0.25 μM EDTA, 10 μM NaCl, 10% glycerol, 10 μM mercaptoethanol and the enzyme. The assay was initiated upon the addition of 10 ml of one of the compounds being tested, followed by the addition of the fluorescence-labeled lysine substrate to each assay tube in an ice bath for 15 minutes. The tubes were transferred to a water bath at 37° C. for an additional 90 minutes.
The fluorescent substrate described by Hoffmann was modified to increase the precision and accuracy by the addition of an internal standard for the HPLC determination. The synthetic substrate, MAL is N-(4-methyl-7-coumarinyl)-N-α(tert-butyloxy-carbonyl)-N-Ω-acetyllysineamide.
An initial assay was performed to determine the range of activity of each compound. […] All values are the result of two or more experiments.

Data on 3 molecules can be found in patent US6693132B2, “Methods for using alkanoyloxymethyl esters” (Beacon Laboratories, Inc., priority 2000, dated 2004).

As for `CCCC(=O)O` [butyric acid], the IC50 in assay [1] was more than 2000 µM; in assay [2], 4500 µM.

For the molecule `CCC(=O)OCOC(=O)CC` [POMP, propionoyloxymethyl propionate], the IC50 amounted to 30 µM in assay [1] and 590 µM in assay [2].

As to `CC(/C=C/C(=O)NO)=C\[C@@H](C)C(=O)c1ccc(N(C)C)cc1` [trichostatin], the IC50 in assay [1] came to 0.005 µM.
